For data set [1] the following is noted: as disclosed in WO 95/05164; cited from earlier work.
Data set [2] in a line: Water solubility of coenzyme Q10 alone. It is filed as physicochemical.
Data set [3] can be described thus: Coenzyme Q10 added separately to aqueous solutions of the other composition ingredients. It is filed as physicochemical. Particulars: 5 mg coenzyme Q10 added to 100 mL of 1%, 2.5% and 5% aqueous solutions of all ingredients except coenzyme Q10. The protocol: To test this theory a 1%, 2.5% and 5% aqueous solutions of the all the composition ingredients except coenzyme Q10 were made in 100 mL volumetric flasks. A 5 mg aliquot of coenzyme Q10 was then separately added to each of the flasks and shaken.

Each structure is given as a SMILES string. Read-outs that look alike come from different tables or passages of the source.

Consider `COC1=C(OC)C(=O)C(C/C=C(\C)CC/C=C(\C)CC/C=C(\C)CC/C=C(\C)CC/C=C(\C)CC/C=C(\C)CC/C=C(\C)CC/C=C(\C)CC/C=C(\C)CCC=C(C)C)=C(C)C1=O` [coenzyme Q10, 2,3-dimethoxy-5-methyl-6-decaprenyl-1,4-benzoquinone], for which the water solubility entry in data set [1] is listed as “practically insoluble in water”. For the same compound, the water solubility entry in data set [2] was “not water soluble at any level”. In data set [3], the “behaviour in ultra sound bath” value was “dispersed then settled to the bottom of the flask” and the “dissolution or dispersion after shaking” value is “did not go into solution or form a dispersion”.

Values taken from patent US6403116B1, “Coenzyme Q10 formulation” (Triarco Inductries, Inc., priority 2000, dated 2002).
